Legend:
Type in all cases: cell-based
human TLR7 = molecular target: T1, human TLR7 (Homo sapiens, UniProt Q9NYK1); assay: TLR7 inhibition reporter assay (HEK-Blue cells, SEAP reporter, gardiquimod stimulation); conditions: HEK-Blue cells overexpressing human TLR7, SEAP reporter, gardiquimod 7.5 μM
T1 construct: host or cells: HEK-Blue cells
T1 sequence (Q9NYK1 27-1049): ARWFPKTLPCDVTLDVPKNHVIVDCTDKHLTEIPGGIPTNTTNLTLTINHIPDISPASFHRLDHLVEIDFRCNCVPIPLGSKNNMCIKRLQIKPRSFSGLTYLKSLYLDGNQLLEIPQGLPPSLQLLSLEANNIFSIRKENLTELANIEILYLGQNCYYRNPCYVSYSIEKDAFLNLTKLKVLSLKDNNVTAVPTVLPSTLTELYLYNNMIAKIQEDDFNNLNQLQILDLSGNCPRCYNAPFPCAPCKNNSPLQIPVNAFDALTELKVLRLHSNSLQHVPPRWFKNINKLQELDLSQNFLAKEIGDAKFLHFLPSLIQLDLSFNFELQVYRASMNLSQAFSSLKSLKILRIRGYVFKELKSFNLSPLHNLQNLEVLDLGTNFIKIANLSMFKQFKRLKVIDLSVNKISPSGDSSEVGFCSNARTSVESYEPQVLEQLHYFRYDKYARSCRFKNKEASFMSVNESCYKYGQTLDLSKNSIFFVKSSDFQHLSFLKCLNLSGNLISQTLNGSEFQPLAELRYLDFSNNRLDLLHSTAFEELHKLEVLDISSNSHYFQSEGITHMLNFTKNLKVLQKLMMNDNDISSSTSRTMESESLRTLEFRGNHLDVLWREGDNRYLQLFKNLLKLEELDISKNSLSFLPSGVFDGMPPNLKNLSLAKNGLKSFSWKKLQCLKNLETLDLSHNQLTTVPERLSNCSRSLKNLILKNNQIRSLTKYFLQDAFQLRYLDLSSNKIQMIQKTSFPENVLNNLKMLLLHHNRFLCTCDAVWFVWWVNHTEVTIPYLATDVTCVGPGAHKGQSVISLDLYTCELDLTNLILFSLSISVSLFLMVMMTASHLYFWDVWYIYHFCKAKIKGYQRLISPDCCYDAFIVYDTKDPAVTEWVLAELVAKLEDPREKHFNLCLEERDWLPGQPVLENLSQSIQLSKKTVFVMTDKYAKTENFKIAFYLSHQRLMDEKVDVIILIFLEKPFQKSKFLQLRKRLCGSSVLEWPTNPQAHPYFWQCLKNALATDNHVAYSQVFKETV
In short: (§1)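 Ligand levels differed by receptor: TLR7 got gardiquimod at 7.5 μM, TLR8 got R848 at 15.9 μM, and TLR9 got ODN2006 at 5 nM, each added after a 30-min room-temperature compound exposure. Incubation lasted 22 h at 37° C before colorimetric SEAP detection.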

human TLR8 = molecular target: T2, human TLR8 (Homo sapiens, UniProt Q9NR97); assay: TLR8 inhibition reporter assay (HEK-Blue cells, SEAP reporter, R848 stimulation); conditions: HEK-Blue cells overexpressing human TLR8, SEAP reporter, R848 15.9 μM
T2 construct: host or cells: HEK-Blue cells
T2 sequence (Q9NR97 27-1041): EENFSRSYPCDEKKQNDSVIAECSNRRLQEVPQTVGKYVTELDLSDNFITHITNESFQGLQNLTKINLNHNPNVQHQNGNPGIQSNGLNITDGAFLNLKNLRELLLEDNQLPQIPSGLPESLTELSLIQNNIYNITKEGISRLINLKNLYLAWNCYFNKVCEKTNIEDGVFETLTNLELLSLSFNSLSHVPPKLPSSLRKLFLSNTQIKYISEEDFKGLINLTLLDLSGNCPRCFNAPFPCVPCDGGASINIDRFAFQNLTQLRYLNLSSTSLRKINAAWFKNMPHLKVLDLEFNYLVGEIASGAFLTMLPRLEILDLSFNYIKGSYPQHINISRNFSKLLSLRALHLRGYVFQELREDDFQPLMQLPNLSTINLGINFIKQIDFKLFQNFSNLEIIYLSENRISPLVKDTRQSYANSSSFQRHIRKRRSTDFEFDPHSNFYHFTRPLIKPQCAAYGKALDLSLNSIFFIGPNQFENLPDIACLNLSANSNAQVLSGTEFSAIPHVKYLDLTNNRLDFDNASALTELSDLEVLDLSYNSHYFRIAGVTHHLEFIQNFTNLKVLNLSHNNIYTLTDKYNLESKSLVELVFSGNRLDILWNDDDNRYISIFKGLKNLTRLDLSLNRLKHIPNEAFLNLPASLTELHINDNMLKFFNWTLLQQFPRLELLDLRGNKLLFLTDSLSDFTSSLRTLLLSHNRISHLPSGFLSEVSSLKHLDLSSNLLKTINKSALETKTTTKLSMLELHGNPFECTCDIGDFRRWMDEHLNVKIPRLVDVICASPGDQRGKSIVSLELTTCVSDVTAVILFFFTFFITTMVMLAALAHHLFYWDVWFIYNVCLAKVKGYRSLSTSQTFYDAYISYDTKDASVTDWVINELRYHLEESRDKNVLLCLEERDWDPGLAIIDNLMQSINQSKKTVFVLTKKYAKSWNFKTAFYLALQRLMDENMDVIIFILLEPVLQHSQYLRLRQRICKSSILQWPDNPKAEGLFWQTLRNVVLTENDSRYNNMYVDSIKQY
In short: as §1

human TLR9 = molecular target: T3, human TLR9 (Homo sapiens, UniProt Q9NR96); assay: TLR9 inhibition reporter assay (HEK-Blue cells, SEAP reporter, ODN2006 stimulation); conditions: HEK-Blue cells overexpressing human TLR9, SEAP reporter, ODN2006 5 nM
T3 construct: host or cells: HEK-Blue cells
T3 sequence (Q9NR96 26-1032): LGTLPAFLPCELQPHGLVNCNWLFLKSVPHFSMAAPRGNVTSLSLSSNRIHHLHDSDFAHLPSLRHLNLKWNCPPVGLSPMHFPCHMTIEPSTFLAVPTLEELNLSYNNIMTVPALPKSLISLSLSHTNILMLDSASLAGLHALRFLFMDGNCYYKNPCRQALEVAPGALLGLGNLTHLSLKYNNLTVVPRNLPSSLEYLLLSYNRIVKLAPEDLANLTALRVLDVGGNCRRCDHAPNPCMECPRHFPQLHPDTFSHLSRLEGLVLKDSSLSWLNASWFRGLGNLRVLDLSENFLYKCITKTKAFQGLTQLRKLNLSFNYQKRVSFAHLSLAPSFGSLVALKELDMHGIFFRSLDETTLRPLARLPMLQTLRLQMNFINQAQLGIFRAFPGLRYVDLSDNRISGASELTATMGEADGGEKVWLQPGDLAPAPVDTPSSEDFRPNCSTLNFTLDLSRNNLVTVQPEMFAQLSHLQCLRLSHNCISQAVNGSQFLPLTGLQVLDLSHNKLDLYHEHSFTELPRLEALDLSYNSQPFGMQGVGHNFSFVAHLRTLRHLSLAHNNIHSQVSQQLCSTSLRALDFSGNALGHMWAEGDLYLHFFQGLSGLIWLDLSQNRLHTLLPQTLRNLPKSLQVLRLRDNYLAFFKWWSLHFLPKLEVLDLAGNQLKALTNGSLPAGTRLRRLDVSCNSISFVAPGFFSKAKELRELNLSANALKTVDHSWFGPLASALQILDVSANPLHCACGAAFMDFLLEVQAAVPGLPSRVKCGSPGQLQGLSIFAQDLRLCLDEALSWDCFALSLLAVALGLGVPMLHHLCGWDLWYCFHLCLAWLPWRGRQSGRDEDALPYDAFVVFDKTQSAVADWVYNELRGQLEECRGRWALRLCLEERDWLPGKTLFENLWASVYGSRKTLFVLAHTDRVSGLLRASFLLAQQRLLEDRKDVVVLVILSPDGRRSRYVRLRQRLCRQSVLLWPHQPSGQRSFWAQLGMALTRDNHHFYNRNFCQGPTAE
In short: as §1

| Compound | IC50 (human TLR7) [nM] | IC50 (human TLR8) [nM] | IC50 (human TLR9) [nM] |
| --- | --- | --- | --- |
| Cc1cc(-c2[nH]nc(-c3ccc4c(c3)CCNC4)c2C(C)C)cc(C)n1 [Example 278, 6-(5-(2,6-dimethylpyridin-4-yl)-4-isopropyl-1H-pyrazol-3-yl)-1,2,3,4-tetrahydroisoquinoline] | 1.43 | 0.33 | 10800 |
| Cc1cc(-c2[nH]nc(C3CCC(N(C)C(=O)CN(C)C)CC3)c2C(C)C)cn2ncnc12 (stereo not drawn) [Example 296, 2-(dimethylamino)-N-(4-(4-isopropyl-5-(8-methyl-[1,2,4]triazolo[1,5-a]pyridin-6-yl)-1H-pyrazol-3-yl)cyclohexyl)-N-methylacetamide] | 3.45 | 0.73 | 33800 |
| Cc1cc(-c2[nH]nc(C3CCC(N(C)CC(=O)N(C)C)CC3)c2C(C)C)cn2ncnc12 (stereo not drawn) [Example 298, 2-((4-(4-isopropyl-5-(8-methyl-[1,2,4]triazolo[1,5-a]pyridin-6-yl)-1H-pyrazol-3-yl)cyclohexyl)(methyl)amino)-N,N-dimethylacetamide] | 1.56 | 0.43 | 7410 |
| Cc1cc(-c2[nH]nc(C3CCC(N(C)C(=O)C4CN(C)C4)CC3)c2C(C)C)cn2ncnc12 (stereo not drawn) [Example 300, N-(4-(4-isopropyl-5-(8-methyl-[1,2,4]triazolo[1,5-a]pyridin-6-yl)-1H-pyrazol-3-yl)cyclohexyl)-N,1-dimethylazetidine-3-carboxamide] | 10.7 | 3.24 | 10100 |
| Cc1cc(-c2[nH]nc(-c3ccc(C4CCN(C(C)C)CC4)cc3)c2C(C)C)cn2ncnc12 [Example 307, 6-(4-isopropyl-3-(4-(1-isopropylpiperidin-4-yl)phenyl)-1H-pyrazol-5-yl)-8-methyl-[1,2,4]triazolo[1,5-a]pyridine] | 118 | 9.33 | > 50000 |
| Cc1cc(-c2[nH]nc(-c3ccc(C4CCN(C)CC4)cc3)c2C(C)C)cn2ncnc12 [Example 309] | 6.67 | 4.19 | 14400 |
| CCN1CCC(c2ccc(-c3n[nH]c(-c4cc(C)c5ncnn5c4)c3C(C)C)cc2)CC1 [Example 310] | 1.45 | 0.43 | 19300 |
| Cc1cc(-c2[nH]nc(-c3ccc(C4CCN(C5COC5)CC4)cc3)c2C(C)C)cn2ncnc12 [Example 311] | 1400 | > 3130 | 18800 |
| COc1cc(-c2[nH]nc(-c3ccc(C4CCN(CC5(C)COC5)CC4)cc3)c2C(C)C)cn2ncnc12 [Example 312] | 5.42 | 17.8 | > 50000 |
| COc1cc(-c2[nH]nc(-c3ccc(C4CCN(C5CCOCC5)CC4)cc3)c2C(C)C)cn2ncnc12 [Example 313] | 3.71 | 1.72 | > 50000 |
| COc1cc(-c2[nH]nc(-c3ccc(C4CCN(C)CC4)cc3)c2C(C)C)cn2ncnc12 [Example 314] | 13.9 | 18.5 | > 50000 |
| CCN1CCC(c2ccc(-c3n[nH]c(-c4cc(OC)c5ncnn5c4)c3C(C)C)cc2)CC1 [Example 315] | 5.22 | 20.2 | > 50000 |
| Cc1cc(-c2[nH]nc(-c3ccc(C4CCN(CC(C)(C)C)CC4)cc3)c2C(C)C)cn2ncnc12 [Example 317] | 9.47 | 4.22 | 44400 |
| COCCN1CCC(c2ccc(-c3n[nH]c(-c4cc(OC)c5ncnn5c4)c3C(C)C)cc2)CC1 [Example 318, 6-(4-isopropyl-3-(4-(1-(2-methoxyethyl)piperidin-4-yl)phenyl)-1H-pyrazol-5-yl)-8-methoxy-[1,2,4]triazolo[1,5-a]pyridine] | 6.23 | 0.83 | 21600 |
| COc1cc(-c2[nH]nc(-c3ccc(C4CCN(CC(C)(C)O)CC4)cc3)c2C(C)C)cn2ncnc12 [Example 319] | 3.84 | 0.53 | 19400 |
| COc1cc(-c2[nH]nc(-c3ccc(C4CCN(CC(F)(F)F)CC4)cc3)c2C(C)C)cn2ncnc12 [Example 320] | 4.38 | 1.3 | 21900 |
| Cc1cc(-c2[nH]nc(-c3ccc(C4CCN(C(=O)CN(C)C)CC4)cc3)c2C(C)C)cn2ncnc12 [Example 323, 2-(dimethylamino)-1-(4-(4-(4-isopropyl-5-(8-methyl-[1,2,4]triazolo[1,5-a]pyridin-6-yl)-1H-pyrazol-3-yl)phenyl)piperidin-1-yl)ethan-1-one] | 22.4 | 3.86 | > 50000 |
| Cc1cc(-c2[nH]nc(-c3ccc(C4CN(C)C4)cc3)c2C(C)C)cn2ncnc12 [Example 324, 6-(4-isopropyl-3-(4-(1-methylazetidin-3-yl)phenyl)-1H-pyrazol-5-yl)-8-methyl-[1,2,4]triazolo[1,5-a]pyridine] | 6.96 | 2.26 | 6240 |
| CCN1CC(c2ccc(-c3n[nH]c(-c4cc(C)c5ncnn5c4)c3C(C)C)cc2)C1 [Example 325] | 19 | 0.19 | > 50000 |

— patent US20230117470A1, “SUBSTITUTED PYRAZOLE COMPOUNDS AS TOLL RECEPTOR INHIBITORS” (BRISTOL-MYERS SQUIBB COMPANY, priority 2019, published 2023)
